PMC6357153 (Viruses, 2019)
≈ marks a conversion by molar mass, not a printed value.

Assay: physchem

| SMILES | solubility (pH 7.2, aqueous buffer) [µM] | solubility (water) [µM] |
| --- | --- | --- |
| CC[C@H](C)[C@H](NC(=O)[C@H](Cc1ccc(O)cc1)NC(=O)[C@H](CO)NC(=O)[C@H](CC(=O)O)NC(=O)[C@H](CC(N)=O)NC(=O)[C@H](CC(C)C)NC(=O)[C@H](CCC(N)=O)NC(=O)[C@H](CCCCN)NC(=O)[C@@H](NC(=O)[C@@H](NC(=O)[C@H](CCC(=O)O)NC(=O)[C@H](CCC(N)=O)NC(=O)[C@H](CC(C)C)NC(=O)[C@H](CCSC)NC(=O)[C@H](C)NC(=O)[C@H](CCSC)NC(=O)[C@H](CCC(=O)O)NC(=O)[C@H](CC(=O)O)NC(=O)[C@H](CO)NC(=O)[C@H](CC(C)C)NC(=O)[C@H](CC(=O)O)NC(=O)[C@H](CC(C)C)NC(=O)[C@H](CC(C)C)NC(=O)[C@@H](NC(=O)[C@@H](NC(=O)[C@H](CC(N)=O)NC(=O)[C@@H](NC(=O)[C@H](CCCCN)NC(=O)[C@H](CO)NC(=O)[C@@H](NC(=O)[C@H](CCC(=O)O)NC(=O)[C@H](C)NC(=O)[C@H](Cc1ccccc1)NC(=O)[C@H](CC(N)=O)NC(=O)[C@@H]1CCCN1C(=O)CN)[C@@H](C)CC)[C@@H](C)CC)[C@@H](C)O)[C@@H](C)O)C(C)C)C(C)C)C(=O)O [HKU4-HR2P1] | 1570 (≈ 6340 µg/mL) | 651 (≈ 2630 µg/mL) |
| CC[C@H](C)[C@H](NC(=O)[C@H](Cc1ccc(O)cc1)NC(=O)[C@H](CO)NC(=O)[C@H](CC(=O)O)NC(=O)[C@H](CC(N)=O)NC(=O)[C@H](CC(C)C)NC(=O)[C@H](CCC(N)=O)NC(=O)[C@H](CCCCN)NC(=O)[C@@H](NC(=O)[C@@H](NC(=O)[C@H](CCC(=O)O)NC(=O)[C@H](CCC(N)=O)NC(=O)[C@H](CC(C)C)NC(=O)[C@H](CCSC)NC(=O)[C@H](C)NC(=O)[C@H](CCSC)NC(=O)[C@H](CCC(=O)O)NC(=O)[C@H](CC(=O)O)NC(=O)[C@H](CO)NC(=O)[C@H](CC(C)C)NC(=O)[C@H](CC(=O)O)NC(=O)[C@H](CC(C)C)NC(=O)[C@H](CC(C)C)NC(=O)[C@@H](NC(=O)[C@@H](NC(=O)[C@H](CC(N)=O)NC(=O)[C@@H](NC(=O)[C@H](CCCCN)NC(=O)[C@H](CO)NC(=O)[C@@H](NC(=O)[C@@H](N)CCC(=O)O)[C@@H](C)CC)[C@@H](C)CC)[C@@H](C)O)[C@@H](C)O)C(C)C)C(C)C)C(=O)N[C@@H](CC(=O)O)C(=O)N[C@@H](CC(C)C)C(=O)N[C@@H](CCCCN)C(=O)N[C@@H](CCC(=O)O)C(=O)N[C@@H](CC(C)C)C(=O)O [HKU4-HR2P2] | 2920 (≈ 12100 µg/mL) | 150 (≈ 623 µg/mL) |
| CC[C@H](C)[C@H](NC(=O)[C@H](Cc1ccc(O)cc1)NC(=O)[C@H](CO)NC(=O)[C@H](CC(=O)O)NC(=O)[C@H](CC(N)=O)NC(=O)[C@H](CC(C)C)NC(=O)[C@H](CCC(N)=O)NC(=O)[C@H](CCCCN)NC(=O)[C@@H](NC(=O)[C@@H](NC(=O)[C@H](CCC(=O)O)NC(=O)[C@H](CCC(N)=O)NC(=O)[C@H](CC(C)C)NC(=O)[C@H](CCSC)NC(=O)[C@H](C)NC(=O)[C@H](CCSC)NC(=O)[C@H](CCC(=O)O)NC(=O)[C@H](CC(=O)O)NC(=O)[C@H](CO)NC(=O)[C@H](CC(C)C)NC(=O)[C@H](CC(=O)O)NC(=O)[C@@H](N)CC(C)C)C(C)C)C(C)C)C(=O)N[C@@H](CC(=O)O)C(=O)N[C@@H](CC(C)C)C(=O)N[C@@H](CCCCN)C(=O)N[C@@H](CCC(=O)O)C(=O)N[C@@H](CC(C)C)C(=O)NCC(=O)N[C@@H](CC(N)=O)C(=O)N[C@@H](Cc1ccc(O)cc1)C(=O)N[C@H](C(=O)N[C@@H](Cc1ccc(O)cc1)C(=O)N[C@@H](Cc1ccc(O)cc1)C(=O)N[C@@H](CC(N)=O)C(=O)N[C@@H](CCCCN)C(=O)N[C@@H](Cc1c[nH]c2ccccc12)C(=O)O)[C@@H](C)O [HKU4-HR2P3] | 118 (≈ 513 µg/mL) | 1670 (≈ 7270 µg/mL) |
| CC[C@H](C)[C@H](NC(=O)[C@H](Cc1ccc(O)cc1)NC(=O)[C@H](CO)NC(=O)[C@H](CCC(=O)O)NC(=O)[C@H](CC(N)=O)NC(=O)[C@H](CC(C)C)NC(=O)[C@H](C)NC(=O)[C@H](CCCCN)NC(=O)[C@@H](NC(=O)[C@@H](NC(=O)[C@H](CCC(N)=O)NC(=O)[C@H](CCC(N)=O)NC(=O)[C@H](CC(C)C)NC(=O)[C@H](CO)NC(=O)[C@H](CC(C)C)NC(=O)[C@H](CCSC)NC(=O)[C@H](CCC(=O)O)NC(=O)[C@H](Cc1ccc(O)cc1)NC(=O)[C@@H](NC(=O)[C@H](CC(C)C)NC(=O)[C@H](CC(=O)O)NC(=O)[C@H](CC(C)C)NC(=O)[C@H](CC(C)C)NC(=O)[C@@H](NC(=O)[C@@H](NC(=O)[C@H](CC(N)=O)NC(=O)[C@@H](NC(=O)[C@H](CCC(N)=O)NC(=O)[C@@H](NC(=O)[C@H](CC(C)C)NC(=O)[C@@H](N)CO)[C@@H](C)O)[C@@H](C)CC)[C@@H](C)O)[C@@H](C)O)[C@@H](C)O)C(C)C)C(C)C)C(=O)N[C@@H](CC(=O)O)C(=O)N[C@@H](CC(C)C)C(=O)N[C@@H](CCCCN)C(=O)N[C@@H](CCC(=O)O)C(=O)N[C@@H](CC(C)C)C(=O)O [MERS-HR2P, reference compound] | 105 (≈ 435 µg/mL) | 29 (≈ 120 µg/mL) |
